Measurements taken from patent publication US20230158098A1, “COMPOSITION FOR PROMOTING ENERGY EXPENDITURE” (MORINAGA MILK INDUSTRY CO., LTD., priority 2017, published 2023).

Tested on: Male C57BL/6J mice
Test: Energy expenditure by indirect calorimetry, administration at rest 2
Type: in vivo
Conditions: mice fasted 1 hour, oral, hydrolysates 1.0 mg/g body weight, MKP peptide 0.4 μg/g body weight, randomized crossover, FIG. 3
Method: Male C57BL/6J mice as laboratory animals were divided into the following four groups: rest group, casein hydrolysate administration group, MKP peptide administration group, and whey protein hydrolysate administration group. The mice were fasted for 1 hour. Subsequently, a casein hydrolysate and a whey protein hydrolysate each in an amount of 1.0 mg/g body weight and a MKP peptide in an amount of 0.4 μg/g body weight were orally administered, and energy expenditure was measured. The number of mice used in the experiment was n=12 in each group, and a randomized crossover test was employed.
Incidentally, as the casein hydrolysate and the whey protein hydrolysate, those prepared in <1>, (1) to (2), above were used, and, as the MKP peptide, a synthetic peptide was purchased from Peptide Institute and used. Energy expenditure for 60 minutes after administration was determined.
As compared with the rest group, in all the casein hydrolysate administration group, MKP peptide administration group, and whey protein hydrolysate administration group, the level of energy expenditure was higher.

## H-Met-Lys-Pro-OH [MKP peptide]
  average energy expenditure for 60 minutes after administration compared with the rest group: higher
